The source of these data is PubChem BioAssay (NCI).

Values joined by “and” are separate entries in the source; they are usually repeats but may differ in a detail not shown here. Identical values can stand only once.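 1) Cells in 96-well plates. 2) Compound, 48 h, 5 concentrations. 3) Linear interpolation between surrounding doses. 4) Unreached endpoint = highest concentration. GI50: concentration for 50% inhibition of growth. TGI: concentration producing complete growth inhibition.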

Test in all cases: NCI-60 cell line screen, 48 h
Assay [1] deals with DMS 114 small cell lung.
In assay [2] the test system is KM12 colon.
For assay [3], the system named is SNB-78 CNS.
Assay [4] relates to HOP-18 NSCLC.
Assay [5] relates to HCT-116 colon.
For assay [6], the system named is PC-3 prostate.
Assay [7] concerns TK-10 renal.
The test system of assay [8] is LOX IMVI melanoma.
For assay [9], the system named is LXFL 529 NSCLC.
Assay [10] deals with SK-OV-3 ovarian.
Assay [11] relates to HOP-62 NSCLC.

Consider `CC(C)=CCC1=C(O)c2ccccc2C(=O)C1=O`, for which the TGI in [1], in [2], in assay [3], in assay [4], in assay [5] and in assay [6] was more than 100 µM in each case. In addition, the TGI in [7], in assay [8], in [9], in assay [10] and in assay [11] was more than 100 µM throughout. The GI50 in assay [7] was > 100 µM and 37.8 µM and 87.1 µM; in [9], > 100 µM and 16.2 µM; in assay [10] it was > 100 µM and 47.7 µM.
For `CCCCNCCCNCCCNC(=O)c1csc(-c2csc(CCNC(=O)C(NC(=O)C(C)C(O)C(C)NC(=O)C(NC(=O)c3nc(C(CC(N)=O)NCC(N)C(N)=O)nc(N)c3C)C(OC3OC(CO)C(O)C(O)C3OC3OC(CO)C(O)C(OC(N)=O)C3O)c3cnc[nH]3)C(C)O)n2)n1` (stereo not drawn), the TGI in [1] is 8.73 µM; in assay [2], more than 100 µM; in assay [3], more than 100 µM; in assay [4], more than 100 µM; in [5], 50 µM and 14.2 µM; in assay [6] it was 50 µM. For the same compound, the TGI in assay [7] was > 50 µM and 58.2 µM; in assay [8], 7.15 µM and 6.49 µM; in assay [9], more than 100 µM; in [10], 50 µM and 36.2 µM; in assay [11], 8.65 µM. Moreover, the GI50 is more than 50 µM in assay [2]; 0.427 µM in assay [5]; more than 50 µM in assay [7]; 0.194 µM in assay [8]; 9.49 µM in assay [10]; 0.109 µM in assay [11].
Turning to `COc1ccc(/C=C\c2cc(OC)c(OC)c(OC)c2)cc1OCC(=O)O`, the TGI in assay [1] was more than 100 µM; in assay [2], more than 74 µM; in assay [3] it was more than 100 µM; in [4], more than 100 µM; in assay [5], 31.5 µM; in [6], more than 91.3 µM. For the same compound, the TGI in [7] was more than 100 µM; in assay [8], more than 100 µM; in [9], more than 100 µM; in assay [10], 94 µM; in [11], more than 100 µM.
For `COc1ccc2c(=O)oc3c(OC)cc(CCN(C)C)c4c(=O)oc1c2c34`, the TGI is 24.9 µM in assay [1]; 36 µM and 13.4 µM in assay [2]; 35.9 µM in assay [3]; 27.6 µM in assay [4]; 27.9 µM and 11.9 µM in assay [5]; 29.4 µM in [6]. In addition, the TGI in assay [7] was 37.1 µM and 16.7 µM; in assay [8], 31.3 µM and 18 µM; in assay [9], 26 µM; in assay [10] it was 33.7 µM and 15.9 µM; in [11] it was 28.7 µM. In addition, the GI50 in assay [2] was 18 µM and 6.41 µM; in assay [5] it was 14.3 µM and 5.27 µM; in assay [7], 20.2 µM and 8.68 µM; in assay [8], 17 µM and 7.81 µM; in assay [10] it was 19.5 µM and 8.47 µM.
